Entries after “also recorded” stand apart in the source; their conditions may differ.
Legend:
[1] = tested on: IFN response in 5TGM1 cells; test: Type-I IFN response in MM cells (qRT-PCR); type: cell-based, murine; conditions: 5TGM1 Sting^KO; BTZ 7.5 nM
Procedure: Total RNA from multiple myeloma cells was prepared with TRIzol™ (ThermoFisher Scientific) and RNA Clean and Concentrator™-5 kit (Zymo Research) following the product instructions. RNA integrity and quantity was assessed by NanoDrop Spectrophotometer (ThermoFisher Scientific). For analysis of mRNA expression, oligo-dT-primed cDNA was obtained using the High Capacity cDNA Reverse Transcription Kit (ThermoFisher Scientific), and used as template to quantify: human and murine IFNA1 (Hs03044218_g1, Mm03030145_gH), human and murine IFNB1 (Hs01077958_s1, Mm00439552_s1), human and murine CXCL9 (Hs00171065_ml, Mm00434946_ml), and human and murine GAPDH (Hs02786624_g1, Mm99999915_g1). Analysis was determined by RT-PCR using TaqMan®Fast Universal PCR Master Mix on a 7500 Fast Real-Time PCR System (ThermoFisher Scientific). Comparative RT-PCR was performed in triplicate. Relative expression was calculated using the comparative […] (Ct) method.

5TGM1 MM cells = test: Cell surface exposure of CALR (flow cytometry); type: cell-based, murine; conditions: 16 h
Procedure: (§1) Multiple myeloma (MM) cells were seeded in 12-well plates (2×10^5 per well), treated with BTZ for 16 h at indicated concentrations, and then stained with Alexa Fluor647® anti-calreticulin antibody (ab196159, Abcam) and 7-AAD. Analysis of fluorescence intensity on 7-AAD negative cells was assessed using BD LRSFortessa™ X-20 flow cytometer.
as §1, with “MM” for “Multiple myeloma (MM)”, “cells” for “cells was assessed”, “LRSFortessa” for “LRSFortessa™”

T cells = test: Analysis of T cell priming (co-culture of MM cells, DCs and T cells); type: cell-based, human
Procedure: DCs were generated from freshly isolated PBMCs as previously described. T cells were negatively selected from CD14− PBMCs using the Pan T cell Isolation Kit (Miltenyi Biotec) and frozen until immature DCs were generated. Either untreated or BTZ-treated MM cells were co-cultured with DCs and T cells for 5 days. T cells and DCs were also cultured in the absence of MM cells and in the presence of BTZ to assess the direct effects of drug on T cells and DCs. After 5 day co-culture, cells were treated with Dynabeads™ Human T-Activator CD3/CD28 (Cat. #11131D, ThermoFisher Scientific) 5 h before analysis, and with GolgiStop™ and GolgiPlug™ (Cat. #554724 and Cat. #555029, BD Biosciences) 3 h before analysis, following the manufacturer's instructions. Cells were then collected and T cell populations were analyzed by CyTOF analysis.
DCs were generated from healthy donors PBMCs as described above (“Generation of Mo-DCs” section). T cells were negatively selected from CD14-PBMCs from the same donors using the Pan T cell Isolation Kit (Miltenyi Biotec) and frozen until immature DCs were generated. Either untreated or BTZ-treated multiple myeloma cells were co-cultured with DCs and T cells for 5 days. T cells and DCs were similarly cultured in the absence of multiple myeloma cells and in the presence of BTZ. Before analysis, cells were treated with Dynabeads™ Human T-Activator CD3/CD28 (#11131D, ThermoFisher Scientific), and with GolgiStop™ and GolgiPlug™ (#554724 and #555029, BD Biosciences). T cell populations were analyzed using 10 color flow-cytometry with the following Abs: CD3-BV605 (#317322), CD8-FITC (#344704), CD4-PerCP/Cyanine5.5 (#317428), CD45RO-APC (#304210), CCR7-PE (#353204), CD69-PE/Cyanine7 (#310912), and IL-2-BV785 (#500348), IFNγ-BV421 (#502532) (BioLegend); and PD1-Super Bright 702 (#67-998-582). LIVE/DEAD™ Fixable Aqua dead Cell Stain(#L34966) (ThermoFisher Scientific) was also added to discriminate dead cells. Intracellular staining for IL-2 and IFNγ was performed using the Fixation/Permeabilization Solution Kit (BD Biosciences).
When T cell experiments were performed using patient multiple myeloma cells, the entire population of autologous BMMCs was cultured in presence and absence of BTZ and analyzed after 5 days. Data from experiments performed using multiple myeloma cell lines were analyzed with a bioinformatic semiautomated pipeline (Perez et al. (2020) Blood; 136(2):199-209). Briefly, flow cytometry files were entered in a custom R script which includes different bioinformatic algorithms and has been designed to reduce the impact of technical and instrumental differences, minimize the variability of manual analysis, and reveal full cellular diversity based on automatic semi-supervised clustering. Data from primary MM patients were manually analyzed by using Infinicyt 2.0 (Cytognos, Salamanca, Spain).

5TGM1 cells = test: Ex vivo IFN-gamma ELISPOT on splenocytes; type: in vivo, mouse; conditions: splenocytes of BTZ-treated, rechallenged mice
Procedure: 5×10^5 5TGM1 WT or calrKO were treated with BTZ (7.5 nM) in vitro for 16 h. C57BL/KaLwRijHsd mice (n=8 per group) were then either vaccinated in the left flank with dying 5TGM1 WT, 5TGM1calrKO, 5TGM1 gabarapKO or not vaccinated. After 1 week, 1×10^6 WT 5TGM1 cells were injected in the contralateral flank and tumor growth was monitored over time. In a parallel experiment under the same conditions, spleens from mice were harvested 10 days after rechallenge and ELISPOT assay was performed to assess T cell specific reactivity against MM cells (Translational Immunogenomics Laboratory, DFCI).
C57BL/KaLwRijHsd mice bearing 5TGM1 WT tumors were treated with BTZ as above. 2 weeks after observation of tumor regression, treated (n=5) as well as naïve mice (n=5), were rechallenged with viable 1×10^6 5TGM1 WT cells, and tumor growth was monitored over time. In a parallel experiment, spleens were harvested 2 weeks after tumor rechallenge from both groups to test T cell specific reactivity against multiple myeloma cell by ELISPOT assay (Translational Immunogenomics Laboratory, DFCI).

For CC(C)C[C@H](NC(=O)[C@H](Cc1ccccc1)NC(=O)c1cnccn1)B(O)O [BTZ, bortezomib], the “IFN response (Ifna1, Ifnb1 qRT-PCR)” value [1] was “abrogation of IFN response after BTZ treatment”, the “CALR exposure on cell surface” value (5TGM1 MM cells; 5TGM1 Sting^KO, BTZ 7.5 nM) was “did not alter CALR exposure process” and the “CALR exposure on cell surface” value (5TGM1 MM cells; 5TGM1 WT, BTZ 1-10 nM) was “can induce hallmarks of ICD in human and murine MM cell lines; also recorded: dose-dependent increase of CTLR exposure”. The “T cell subsets (CD4+ EM, total CD8+, CD8+ EM)” value (T cells; BTZ-treated AMO1 STING^KO vs WT) was “no significant increase of CD4+EM; total CD8+; and CD8+EM cells”, the “T cell subsets (CD4+ EM, total CD8+, CD8+ EM, CD8+ TEMRA)” value (T cells; BTZ-treated AMO1 or H929 cells with DCs and T cells, 5 days) was “significant increase of CD4+ effector memory (EM); total CD8+; CD8+EM and CD8+ terminally differentiated EM (TEMRA) cells” and the “T cell subsets / T cell maturation” value (T cells; DCs and T cells with BTZ 5 nM in the absence of MM cells, 5 days) was “not observed by treating DCs and T cells with BTZ in the absence of multiple myeloma cells; also recorded: does not induce T cell maturation”. For the same compound, the “T cell phenotype / priming (CyTOF)” value (T cells; DCs primed by BTZ-treated AMO1 GABARAP^KO) was “led to T cell exhaustion; also recorded: GABARAP^KO blocks T cell priming by DCs after BTZ treatment”, the “CD4+ T cell phenotype (CyTOF)” value (T cells; DCs primed by BTZ-treated AMO1 WT) was “switched CD4+ T cells towards an effector memory function” and the “CD4+ and CD8+ T cell populations” value (T cells; autologous BMMCs from MM patients, BTZ 5 nM, 5 days) was “confirmed the phenotypic changes in both CD4+ and CD8+ T cell populations”. For the same compound, the “T cell reactivity against MM cells (IFN-gamma ELISPOT)” value (5TGM1 cells) was “robust immune response against multiple myeloma cells; also recorded: generates a robust immune response against MM cells”.

— patent US12109266B2, “Modulating gabarap to modulate immunogenic cell death” (Dana-Farber Cancer Institute, Inc., priority 2020, dated 2024)
